Results taken from paper PMC4916434, “Evaluation of the inhibition potential of plumbagin against cytochrome P450 using LC-MS/MS and cocktail approach” (Scientific Reports, 2016).

Legend:
Format in all cases: in vitro ADME
CYP2B6 = biological target: T1, CYP2B6 (Homo sapiens, UniProt P20813); experiment: biochemical
T1 construct: consisting of pooled HLMs (0.5 mg/ml) or RLMs (1 mg/ml) and an NADPH-regenerating system; tissue Corning Gentest Corporation; host or cells: pooled human liver microsomes (n = 20)
T1 sequence (P20813 1-491): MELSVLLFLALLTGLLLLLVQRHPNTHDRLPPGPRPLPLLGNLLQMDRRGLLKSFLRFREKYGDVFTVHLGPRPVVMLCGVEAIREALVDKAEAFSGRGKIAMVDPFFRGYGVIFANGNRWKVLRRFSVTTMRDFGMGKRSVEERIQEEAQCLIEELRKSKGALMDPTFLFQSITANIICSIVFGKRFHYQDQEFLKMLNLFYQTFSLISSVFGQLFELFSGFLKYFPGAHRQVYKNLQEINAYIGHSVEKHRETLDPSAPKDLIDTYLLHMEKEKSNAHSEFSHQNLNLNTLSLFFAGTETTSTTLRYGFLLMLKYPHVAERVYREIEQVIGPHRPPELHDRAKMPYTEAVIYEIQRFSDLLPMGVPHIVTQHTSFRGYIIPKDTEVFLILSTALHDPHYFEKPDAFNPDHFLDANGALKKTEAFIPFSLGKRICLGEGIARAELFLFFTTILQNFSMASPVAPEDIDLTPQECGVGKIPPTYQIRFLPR
Experimental: (§1) Microsomal incubation was carried out at 37 °C in a mixture of 200 μl in 0.05 M Tris/HCl buffer (pH 7.4) consisting of pooled HLMs (0.5 mg/ml) or RLMs (1 mg/ml) and an NADPH-regenerating system including MgCl2 (5 mM), G6P (10 mM), G6PDH (0.4 U/ml) and NADP (1 mM). Substrates were added into the incubation mixture and obtained the final concentrations (10 μM phenacetin for CYP1A2, 20 μM bupropion for CYP2B1/6, 20 μM tolbutamide for CYP2C9/11, 5 μM dextromethorphan for CYP2D1/6, 20 μM chlorzoxazone for CYP2E1 and 10 μM midazolam for CYP3A2/4), which were close to Km respectively. The proportion of organic solvent was not higher than 1% (v/v) in the incubation mixture. After pre-incubation for 5 min, the reaction was initiated by addition of NADP. Incubations were performed for 20 min, stopped by adding 200 μl ice-cold acetonitrile. And then 20 μl internal standard solution was added (3-acetamidophenol 2 μg/ml, chlorpropamide 2 μg/ml and mebendazole 2 μg/ml). The solution was mixed thoroughly for 3 min and centrifuged for 10 min at 16,000 × g at 4 °C. The supernatant (60 μl) was transferred to autosampler vials, and 2 μl was injected into LC-MS/MS system.
(§2) The IC50 (concentration of inhibitor to cause 50% inhibition of original enzyme activity) values were determined with the same incubation condition above. The specific concentrations of plumbagin were ranged from 0.1 μM to 50 μM. The IC50 values were calculated by plotting relative activities over the logarithm of plumbagin concentrations using GraphPad Prism 5.0 (GraphPad software Inc., CA, USA).
(§3) Cocktail probe substrates were then added and incubated for 20 min. Reactions were stopped with 200 μl ice-cold acetonitrile. The samples were treated according to the microsomal incubation method and then injected into LC-MS/MS for analysis.
(§4) Kinetic studies were performed for determining the types of inhibition on CYP by plumbagin. Pooled HLMs (0.5 mg/ml) or RLMs (1 mg/ml) with plumbagin (1 μM, 2 μM, 5 μM and 10 μM) were incubated in 0.05 M Tris/HCl buffer (pH 7.4) for 20 min at 37 °C. A series of concentrations for cocktail probe substrates were used: 2.5–20 μM phenacetin for CYP1A2; 5–40 μM bupropion for CYP2B1/6; 5–40 μM tolbutamide for CYP2C9/11; 1.25–10 μM dextromethorphan for CYP2D1/6; 5–40 μM chlorzoxazone for CYP2E1; 2.5–80 μM midazolam for CYP3A2; and 0.625–5 μM midazolam for CYP3A4. Enzyme kinetics as well as statistical analysis were performed using GraphPad Prism 5.0.
(§5) All data were presented as mean ± SD. The IC50 values were fitted by non-linear regression analysis using GraphPad Prism 5.0. The kinetic parameters were obtained by fitting velocity data to kinetic models (Michaelis-Menten) using GraphPad Prism 5.0. The Lineweaver-Burk Plot (the reciprocal of reaction velocities versus the reciprocal of substrates concentrations) was used to determine the quality of fit to a specific inhibition model. The inhibition constant (Ki) was obtained by a secondary plot using the slopes of the primary Lineweaver-Burk Plot (Km/Vmax versus inhibitor concentrations). αKi was obtained from a secondary plot using the y-intercepts of the Lineweaver-Burk plot (1/Vmax versus inhibitor concentrations). All results were analyzed in quadruplicate. One-way analysis of variance was used to estimate the significance of differences. There was statistical significance between control and test groups if p < 0.05.

CYP1A2 = biological target: T2, CYP1A2 (Homo sapiens, UniProt P05177); experiment: biochemical
T2 construct: consisting of pooled HLMs (0.5 mg/ml) or RLMs (1 mg/ml) and an NADPH-regenerating system; tissue Corning Gentest Corporation; host or cells: pooled human liver microsomes (n = 20)
T2 sequence (P05177 1-516): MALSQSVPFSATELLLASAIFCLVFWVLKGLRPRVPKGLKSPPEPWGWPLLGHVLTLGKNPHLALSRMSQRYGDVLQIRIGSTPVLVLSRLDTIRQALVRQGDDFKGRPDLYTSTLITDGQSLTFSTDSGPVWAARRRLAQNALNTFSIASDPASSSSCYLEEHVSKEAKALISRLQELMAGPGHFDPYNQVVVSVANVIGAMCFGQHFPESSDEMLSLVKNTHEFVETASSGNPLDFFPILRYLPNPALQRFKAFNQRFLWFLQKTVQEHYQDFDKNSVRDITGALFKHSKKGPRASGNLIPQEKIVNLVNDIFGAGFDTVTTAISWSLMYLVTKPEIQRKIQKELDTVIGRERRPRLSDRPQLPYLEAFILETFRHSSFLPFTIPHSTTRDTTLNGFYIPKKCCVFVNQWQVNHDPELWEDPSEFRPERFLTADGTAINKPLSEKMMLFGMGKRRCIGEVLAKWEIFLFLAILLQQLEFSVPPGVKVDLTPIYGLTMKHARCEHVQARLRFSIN
Experimental: as §1, §2, §3, §4, §5

CYP3A4 = biological target: T3, CYP3A4 (Homo sapiens, UniProt P08684); experiment: biochemical
T3 construct: consisting of pooled HLMs (0.5 mg/ml) or RLMs (1 mg/ml) and an NADPH-regenerating system; tissue Corning Gentest Corporation; host or cells: pooled human liver microsomes (n = 20)
T3 sequence (P08684 whole entry): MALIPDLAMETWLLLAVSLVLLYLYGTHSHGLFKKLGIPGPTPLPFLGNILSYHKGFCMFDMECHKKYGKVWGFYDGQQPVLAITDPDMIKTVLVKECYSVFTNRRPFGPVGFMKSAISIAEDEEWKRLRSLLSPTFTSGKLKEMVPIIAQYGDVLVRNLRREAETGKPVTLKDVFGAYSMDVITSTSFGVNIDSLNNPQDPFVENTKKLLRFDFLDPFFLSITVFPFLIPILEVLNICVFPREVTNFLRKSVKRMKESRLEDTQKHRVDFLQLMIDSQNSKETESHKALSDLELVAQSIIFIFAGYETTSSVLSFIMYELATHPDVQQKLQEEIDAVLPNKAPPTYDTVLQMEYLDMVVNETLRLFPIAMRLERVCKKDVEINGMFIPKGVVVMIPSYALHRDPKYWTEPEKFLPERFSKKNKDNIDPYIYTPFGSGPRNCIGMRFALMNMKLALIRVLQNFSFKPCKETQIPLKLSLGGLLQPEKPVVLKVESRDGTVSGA
Experimental: as §1, §2, §3, §4, §5

CYP2D6 = biological target: T4, CYP2D6 (Homo sapiens, UniProt P10635); experiment: CYP2D6 inhibition (dextromethorphan O-demethylation) in pooled human liver microsomes, cocktail LC-MS/MS
T4 construct: consisting of pooled HLMs (0.5 mg/ml) or RLMs (1 mg/ml) and an NADPH-regenerating system; tissue Corning Gentest Corporation; host or cells: pooled human liver microsomes (n = 20)
T4 sequence (P10635 whole entry): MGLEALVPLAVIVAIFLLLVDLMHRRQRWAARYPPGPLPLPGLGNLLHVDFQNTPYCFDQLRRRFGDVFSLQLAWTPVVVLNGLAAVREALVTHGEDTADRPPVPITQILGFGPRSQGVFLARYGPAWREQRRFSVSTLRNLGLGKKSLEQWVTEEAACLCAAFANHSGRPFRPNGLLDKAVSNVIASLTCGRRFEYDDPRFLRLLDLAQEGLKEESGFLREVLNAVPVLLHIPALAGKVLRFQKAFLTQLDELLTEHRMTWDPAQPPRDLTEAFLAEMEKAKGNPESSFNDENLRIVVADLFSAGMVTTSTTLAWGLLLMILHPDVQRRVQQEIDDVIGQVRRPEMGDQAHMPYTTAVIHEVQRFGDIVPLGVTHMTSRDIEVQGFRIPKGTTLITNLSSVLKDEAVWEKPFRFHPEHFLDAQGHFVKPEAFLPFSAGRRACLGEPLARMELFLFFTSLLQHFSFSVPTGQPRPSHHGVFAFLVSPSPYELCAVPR
Experimental: as §1, §2, §3, §4, §5

CC1=CC(=O)c2c(O)cccc2C1=O [plumbagin, 5-hydroxy-2-methyl-1,4-naphthoquinone]
IC50 (CYP2B6): 13.1 µM
Ki (CYP2B6): 1.62 µM
Type of inhibition (CYP2B6): mixed-type
α (CYP2B6; human, 20 min, pH 7.4): 0.55
αKi (CYP2B6; human, 20 min, pH 7.4): 2.92 µM
IC50 (CYP1A2): 7.49 µM
Ki (CYP1A2): 0.15 µM
Type of inhibition (CYP1A2): non-competitive
α (CYP1A2; human, 20 min, pH 7.4): 0.94
αKi (CYP1A2; human, 20 min, pH 7.4): 0.16 µM
IC50 (CYP3A4): 6.45 µM
Ki (CYP3A4): 0.88 µM
Type of inhibition (CYP3A4): mixed-type
α (CYP3A4; human, 20 min, pH 7.4): 1.54
αKi (CYP3A4; human, 20 min, pH 7.4): 0.57 µM
IC50 (CYP2D6): 10.2 µM
Type of inhibition (CYP2D6): mixed-type
Ki (CYP2D6; HLMs, secondary Lineweaver-Burk plot, dextromethorphan 1.25-10 μM): 1.46 µM
α (CYP2D6; human, 20 min, pH 7.4): 0.66
αKi (CYP2D6; human, 20 min, pH 7.4): 2.22 µM
